Test results reported in the supplement of paper PMC10307832.

Legend:
Assay in all cases: relative viability (nuclei count vs DMSO), 5 days (fraction); higher = more cells survive
[1] = compound: C[C@@]1(C(=O)Nc2ccc(F)nc2)CCCN1c1nc(Nc2cc(C3CC3)n[nH]2)c2cccn2n1 + CC(=O)c1c(C)c2cnc(Nc3ccc(N4CCNCC4)cn3)nc2n(C2CCCC2)c1=O [Palbociclib] (partner 0.5 µM)
Procedure, shortened: (§1)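 Nuclei were stained with Hoechst during a one-step fixation (final 0.05% Triton X-100, 1% formaldehyde, 1 ug/ml Hoechst) carried out 5 days after dosing, then counted on 4× images. The cells, lung cancer lines in 1536-well plates, had been dosed by pin tool the day after seeding with one drug alone or a fixed anchor-drug dose plus five library-drug doses (not always all listed) in √10 steps. Relative viability is the nuclei count in treated wells divided by that in vehicle wells, and each value is the median of duplicate plates.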

Motesanib + Lapatinib = compound: CC1(C)CNc2cc(NC(=O)c3cccnc3NCc3ccncc3)ccc21 [Motesanib] + CS(=O)(=O)CCNCc1ccc(-c2ccc3ncnc(Nc4ccc(OCc5cccc(F)c5)c(Cl)c4)c3c2)o1 [Lapatinib] (partner 2 µM)
Procedure, shortened: as §1

[2] = compound: C[C@@]1(C(=O)Nc2ccc(F)nc2)CCCN1c1nc(Nc2cc(C3CC3)n[nH]2)c2cccn2n1 + CCNC(=O)c1noc(-c2cc(C(C)C)c(O)cc2O)c1-c1ccc(CN2CCOCC2)cc1 [Luminespib] (partner 0.01 µM)
Procedure, shortened: as §1

[3] = compound: C[C@@]1(C(=O)Nc2ccc(F)nc2)CCCN1c1nc(Nc2cc(C3CC3)n[nH]2)c2cccn2n1 + N=C(N)NC(=N)NCCc1ccccc1 [Phenformin] (partner 250 µM)
Procedure, shortened: as §1

Cell Line | relative viability ([1]; first compound 0.04 µM) | relative viability ([1]; first compound 0.1265 µM) | relative viability ([1]; first compound 0.4 µM) | relative viability ([1]; first compound 1.265 µM) | relative viability (Motesanib + Lapatinib; first compound 0.01 µM) | relative viability (Motesanib + Lapatinib; first compound 0.03162 µM) | relative viability (Motesanib + Lapatinib; first compound 0.1 µM) | relative viability (Motesanib + Lapatinib; first compound 0.3162 µM) | relative viability (Motesanib + Lapatinib; first compound 1 µM) | relative viability ([2]; first compound 0.04 µM) | relative viability ([2]; first compound 0.1265 µM) | relative viability ([2]; first compound 0.4 µM) | relative viability ([2]; first compound 1.265 µM) | relative viability ([3]; first compound 0.04 µM) | relative viability ([3]; first compound 0.1265 µM) | relative viability ([3]; first compound 0.4 µM) | relative viability ([3]; first compound 1.265 µM)
NCI-H1648 | 0.257 | 0.246 | 0.269 | 0.259 |  |  |  |  |  |  |  |  |  |  |  |  | 
SK-MES-1 | 0.34 | 0.355 | 0.293 | 0.282 | 0.46 | 0.481 | 0.418 | 0.465 | 0.454 | 0.666 | 0.664 | 0.763 | 0.609 | 0.699 | 0.632 | 0.559 | 0.635
HCC-366 | 0.338 | 0.313 | 0.28 | 0.243 | 0.913 | 1.08 | 1.06 | 1.13 | 1.06 |  |  |  |  | 0.66 | 0.54 | 0.596 | 0.186
201T | 0.317 | 0.264 | 0.311 | 0.365 | 1.01 | 1.04 | 1.08 | 1.04 | 0.903 | 0.878 | 0.84 | 0.799 | 1.02 | 0.346 | 0.355 | 0.32 | 0.36
HCC-827 | 0.418 | 0.466 | 0.48 | 0.459 | 0.198 | 0.191 | 0.172 | 0.224 | 0.192 | 0.747 | 0.388 | 0.529 | 1 | 0.431 | 0.402 | 0.371 | 0.443
NCI-H647 | 0.398 | 0.413 | 0.353 | 0.367 | 0.995 | 1 | 1.11 | 1.19 | 1.09 | 0.152 | 0.245 | 0.181 | 0.164 | 0.651 | 0.488 | 0.346 | 0.458
NCI-H2023 | 0.255 | 0.22 | 0.174 | 0.209 | 0.939 | 0.778 | 0.54 | 0.988 | 0.897 | 0.58 | 0.336 | 0.37 | 0.192 | 0.354 | 0.271 | 0.294 | 0.189
NCI-H520 | 0.254 | 0.196 | 0.201 | 0.218 | 0.714 | 0.823 | 0.877 | 0.882 | 0.899 | 0.214 | 0.242 | 0.267 | 0.211 | 0.819 | 0.301 | 0.487 | 0.416
RERF-LC-KJ | 1.03 | 0.946 | 0.943 | 0.845 | 0.895 | 0.876 | 0.958 | 0.827 | 0.853 | 1.15 | 0.964 | 1.09 | 0.717 | 0.315 | 0.348 | 0.322 | 0.273
A-427 | 0.497 | 0.459 | 0.459 | 0.472 | 0.668 | 1.02 | 0.896 | 1.1 | 1.02 | 1.03 | 0.957 | 0.639 | 0.881 | 0.341 | 0.265 | 0.229 | 0.211
NCI-H441 | 0.132 | 0.146 | 0.116 | 0.13 |  |  |  |  |  | 0.258 | 0.175 | 0.221 | 0.267 | 0.405 | 0.35 | 0.369 | 0.264
NCI-H1703 |  |  |  |  | 1.05 | 0.679 | 0.526 | 0.334 | 0.323 |  |  |  |  |  |  |  | 
NCI-H1792 | 0.417 | 0.742 | 0.268 | 0.393 | 0.881 | 0.854 | 0.843 | 0.926 | 0.945 | 0.344 | 0.653 | 0.243 | 0.292 | 0.145 | 0.0792 | 0.208 | 0.189
Calu-6 |  |  |  |  | 1.06 | 1.05 | 1.02 | 0.997 | 0.999 |  |  |  |  |  |  |  | 
SK-LU-1 | 0.391 | 0.358 | 0.341 | 0.37 | 0.844 | 1.02 | 0.894 | 0.961 | 1.01 | 0.208 | 0.191 | 0.184 | 0.172 | 0.476 | 0.396 | 0.361 | 0.409
PC-3 [JPC-3] | 0.557 | 0.467 | 0.516 | 0.549 | 0.465 | 0.459 | 0.451 | 0.42 | 0.465 | 0.642 | 0.646 | 0.561 | 0.8 | 0.504 | 0.467 | 0.456 | 0.476
EMC-BAC-2 | 0.393 | 0.333 | 0.331 | 0.369 | 0.884 | 0.881 | 0.847 | 0.926 | 0.875 | 0.863 | 0.941 | 0.713 | 0.857 | 0.472 | 0.437 | 0.399 | 0.313
LK-2 | 0.381 | 0.287 |  | 0.41 | 0.784 | 1.19 | 0.78 | 1.04 | 0.901 | 0.159 | 0.204 | 0.174 | 0.169 | 0.251 | 0.178 | 0.166 | 0.202
NCI-H2126 | 0.353 | 0.309 | 0.342 | 0.359 | 0.811 | 0.768 | 0.718 | 0.789 | 0.728 | 0.733 | 0.429 | 0.542 | 0.52 | 0.459 | 0.293 | 0.314 | 0.293
NCI-H3122 | 0.158 | 0.183 | 0.171 | 0.185 | 0.991 | 1.03 | 0.965 | 1.03 | 1.02 | 0.0763 | 0.0863 | 0.0793 | 0.0682 | 0.411 | 0.373 | 0.387 | 0.575
NCI-H1975 | 0.564 | 0.521 | 0.374 | 0.452 | 0.873 | 0.815 | 0.89 | 0.907 | 0.993 | 0.272 | 0.117 | 0.128 | 0.187 | 0.407 | 0.36 | 0.326 | 0.314
